15 compounds from US8193191B2, “Urotensin II receptor antagonists” (Janssen Pharmaceutica N.V., priority 2006, dated 2012) can be followed below.

Test [1] addresses T1, rat GPR14 (U-II receptor) (Rattus norvegicus, UniProt P49684).
T1 construct: expressed in transfected cells
T1 sequence (P49684 1-386): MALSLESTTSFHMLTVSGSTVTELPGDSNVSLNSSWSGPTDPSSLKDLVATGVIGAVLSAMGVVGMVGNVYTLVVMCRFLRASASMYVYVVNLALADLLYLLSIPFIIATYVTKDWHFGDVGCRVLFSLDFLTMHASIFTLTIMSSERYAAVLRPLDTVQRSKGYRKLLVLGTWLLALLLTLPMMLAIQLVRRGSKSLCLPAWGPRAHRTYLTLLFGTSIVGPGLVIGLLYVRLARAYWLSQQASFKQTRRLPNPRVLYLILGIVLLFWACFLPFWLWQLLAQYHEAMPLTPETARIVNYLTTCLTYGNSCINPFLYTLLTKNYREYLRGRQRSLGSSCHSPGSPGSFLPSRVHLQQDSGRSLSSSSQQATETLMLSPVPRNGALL
The test can be described thus: Rat UII Calcium Mobilization FLIPR Assay. The test is classed as cell-based. To be noted: average value for the compound tested; read-out: Rat UII FLIPR Average IC50. An outline of the steps: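 Fluorescent calcium signals were recorded at room temperature (23° C) by FLIPR. Stable rat U-II receptor CHO lines had been dye-loaded for 1 h at 37° C in pH 7.4 HBSS containing 20 mM HEPES, 0.1% BSA and 2.5 mM probenecid.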
For orientation: Calcium flux is commonly read through the fluorescence of an indicator in the cells.

In test [2] the target is T2, Human UII receptor, 6D9 human rhabdomyosarcoma cells (Homo sapiens, UniProt Q9UKP6).
T2 construct: 6D9: isolated by dilution subcloning of RMS13 cells, ATCC® Number: CRL-2061; host or cells: 6D9 human rhabdomyosarcoma cells (subclone of RMS13)
T2 sequence (Q9UKP6 1-389): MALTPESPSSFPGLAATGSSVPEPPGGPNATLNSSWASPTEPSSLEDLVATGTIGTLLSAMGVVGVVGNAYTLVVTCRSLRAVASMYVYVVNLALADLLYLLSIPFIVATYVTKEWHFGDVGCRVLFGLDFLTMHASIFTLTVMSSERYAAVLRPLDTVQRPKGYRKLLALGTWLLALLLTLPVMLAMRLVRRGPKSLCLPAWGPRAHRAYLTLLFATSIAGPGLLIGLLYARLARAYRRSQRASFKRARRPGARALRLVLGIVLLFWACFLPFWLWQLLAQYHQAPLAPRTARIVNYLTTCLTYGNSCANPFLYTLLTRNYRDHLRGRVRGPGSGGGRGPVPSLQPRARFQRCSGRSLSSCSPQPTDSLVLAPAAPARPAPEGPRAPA
Description: Human UII Calcium Mobilization Assay. The test is classed as cell-based. To be noted: average value, FLIPR TETRA, read-out: Human UII Ca^+ Mobilization Average IC50. A digest of the protocol: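 FLIPR calcium responses were recorded for 4 minutes after room-temperature addition of test antagonist and U-II, in dye-loaded human 6D9 cells (37° C, 45 min; HBSS/HEPES with probenecid 1.25 mM). Compounds serially diluted in HBSS/HEPES, up to 0.1% DMSO; curves gave IC50 and EC50.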

Test [3] deals with T3, endogenous human UII receptor (Homo sapiens, UniProt Q9UKP6).
T3 sequence (Q9UKP6 1-389): T2 sequence (Q9UKP6 1-389)
The test can be described thus: Human Radioligand Binding Assay ((^125I)-U-II binding to human skeletal muscle myoblasts).

In the case of `CCCC(=O)NCCC[C@H](c1ccc(OC)c(OC)c1)N1C(=O)c2cccc(N3CCN([C@H](C)c4ccccc4)CC3)c2C1=O` [Cpd 176, (R)-N-(4-(3,4-dimethoxy-phenyl)-4-{1,3-dioxo-4-[4-(1R)-(1-phenyl-ethyl)-piperazin-1-yl]-1,3-dihydro-isoindol-2-yl}-butyl)-butyramide], the IC50 (in general, the midpoint of a concentration-inhibition curve) in test [1] worked out at 0.013 µM; in test [2] it was 0.85 µM. Moreover, the affinity in test [3], expressed as Ki, was 0.024 µM.
The matching figures for `COCCC(=O)NCCC[C@H](c1ccc(OC)c(OC)c1)N1C(=O)c2cccc(N3CCN([C@H](C)c4ccccc4)CC3)c2C1=O` [Cpd 177, (R)-N-(4-(3,4-dimethoxy-phenyl)-4-{1,3-dioxo-4-[4-(1R)-(1-phenyl-ethyl)-piperazin-1-yl]-1,3-dihydro-isoindol-2-yl}-butyl)-3-methoxy-propionamide]: 0.0071 µM, 1.1 µM and 0.093 µM.
The matching figures for `COc1ccc([C@@H](CCCNC(=O)C2CCC2)N2C(=O)c3cccc(N4CCN([C@H](C)c5ccccc5)CC4)c3C2=O)cc1OC` [Cpd 178, (R)-cyclobutanecarboxylic acid (4-(3,4-dimethoxy-phenyl)-4-{1,3-dioxo-4-[4-(1R)-(1-phenyl-ethyl)-piperazin-1-yl]-1,3-dihydro-isoindol-2-yl}-butyl)-amide]: 0.013 µM, 0.56 µM and 0.022 µM.
The matching figures for `COc1ccc([C@@H](CCCNC(=O)C2CCCC2)N2C(=O)c3cccc(N4CCN([C@H](C)c5ccccc5)CC4)c3C2=O)cc1OC` [Cpd 179, (R)-cyclopentanecarboxylic acid (4-(3,4-dimethoxy-phenyl)-4-{1,3-dioxo-4-[4-(1R)-(1-phenyl-ethyl)-piperazin-1-yl]-1,3-dihydro-isoindol-2-yl}-butyl)-amide]: 0.024 µM, 1.1 µM and 0.043 µM.
In the case of `CCC(=O)NCCC[C@H](c1ccc(OC)c(OC)c1)N1C(=O)c2cccc(N3CCN([C@H](C)c4ccccc4)CC3)c2C1=O` [Cpd 180, (R)-N-(4-(3,4-dimethoxy-phenyl)-4-{1,3-dioxo-4-[4-(1R)-(1-phenyl-ethyl)-piperazin-1-yl]-1,3-dihydro-isoindol-2-yl}-butyl)-propionamide], the IC50 turned out to be 0.0088 µM in test [1] and 0.57 µM in test [2]. Further, in test [3], the Ki – broadly, a dissociation constant, usually derived from enzyme kinetics or from competition with a known ligand – was determined as 0.023 µM.
The matching figures for `COc1ccc([C@@H](CCCNC(=O)CC(C)C)N2C(=O)c3cccc(N4CCN([C@H](C)c5ccccc5)CC4)c3C2=O)cc1OC` [Cpd 181, (R)-N-(4-(3,4-dimethoxy-phenyl)-4-{1,3-dioxo-4-[4-(1R)-(1-phenyl-ethyl)-piperazin-1-yl]-1,3-dihydro-isoindol-2-yl}-butyl)-3-methyl-butyramide]: 0.012 µM, 0.97 µM and 0.041 µM.
The matching figures for `CCOCC(=O)NCCC[C@H](c1ccc(OC)c(OC)c1)N1C(=O)c2cccc(N3CCN([C@H](C)c4ccccc4)CC3)c2C1=O` [Cpd 182, (R)-N-(4-(3,4-dimethoxy-phenyl)-4-{1,3-dioxo-4-[4-(1R)-(1-phenyl-ethyl)-piperazin-1-yl]-1,3-dihydro-isoindol-2-yl}-butyl)-2-ethoxy-acetamide]: 0.0096 µM, 0.58 µM and 0.04 µM.
The matching figures for `COc1ccc([C@@H](CCCNC(=O)c2cnn(C)c2Cl)N2C(=O)c3cccc(N4CCN([C@H](C)c5ccccc5)CC4)c3C2=O)cc1OC` [Cpd 183, (R)-5-chloro-1-methyl-1H-pyrazole-4-carboxylic acid (4-(3,4-dimethoxy-phenyl)-4-{1,3-dioxo-4-[4-(1R)-(1-phenyl-ethyl)-piperazin-1-yl]-1,3-dihydro-isoindol-2-yl}-butyl)-amide]: 0.019 µM, 1.3 µM and 0.055 µM.
For `COc1ccc([C@@H](CCCNC(=O)c2c(C)nn(C)c2C)N2C(=O)c3cccc(N4CCN([C@H](C)c5ccccc5)CC4)c3C2=O)cc1OC` [Cpd 184, (R)-1,3,5-trimethyl-1H-pyrazole-4-carboxylic acid (4-(3,4-dimethoxy-phenyl)-4-{1,3-dioxo-4-[4-(1R)-(1-phenyl-ethyl)-piperazin-1-yl]-1,3-dihydro-isoindol-2-yl}-butyl)-amide], the half-maximal inhibitory concentration (IC50) in test [1] stood at 0.015 µM; in test [2] it was 1.1 µM. Moreover, the Ki in test [3] was 0.056 µM.
The matching figures for `COc1ccc([C@@H](CCCNC(=O)C(C)(C)C)N2C(=O)c3cccc(N4CCN([C@H](C)c5ccccc5)CC4)c3C2=O)cc1OC` [Cpd 185, (R)-N-(4-(3,4-dimethoxy-phenyl)-4-{1,3-dioxo-4-[4-(1R)-(1-phenyl-ethyl)-piperazin-1-yl]-1,3-dihydro-isoindol-2-yl}-butyl)-2,2-dimethyl-propionamide]: 0.0098 µM, 1 µM and 0.023 µM.
In the case of `COc1ccc([C@@H](CCCNC(=O)c2ccoc2)N2C(=O)c3cccc(N4CCN([C@H](C)c5ccccc5)CC4)c3C2=O)cc1OC` [Cpd 186, (R)-furan-3-carboxylic acid (4-(3,4-dimethoxy-phenyl)-4-{1,3-dioxo-4-[4-(1R)-(1-phenyl-ethyl)-piperazin-1-yl]-1,3-dihydro-isoindol-2-yl}-butyl)-amide], the results for the half-maximal inhibitory concentration (IC50) in test [1] and in test [2] were 0.013 µM and 0.82 µM, respectively. The compound further had a Ki in test [3] of 0.037 µM.
For `COc1ccc([C@@H](CCCNC(=O)c2ccno2)N2C(=O)c3cccc(N4CCN([C@H](C)c5ccccc5)CC4)c3C2=O)cc1OC` [Cpd 187, (R)-isoxazole-5-carboxylic acid (4-(3,4-dimethoxy-phenyl)-4-{1,3-dioxo-4-[4-(1R)-(1-phenyl-ethyl)-piperazin-1-yl]-1,3-dihydro-isoindol-2-yl}-butyl)-amide], the results for the IC50 in test [1] and in test [2] were 0.011 µM and 0.91 µM, respectively. Also, in test [3], the Ki was found to be 0.05 µM.
The matching figures for `COc1ccc([C@@H](CCCNC(=O)c2cc(C)[nH]c2C)N2C(=O)c3cccc(N4CCN([C@H](C)c5ccccc5)CC4)c3C2=O)cc1OC` [Cpd 188, (R)-2,5-dimethyl-1H-pyrrole-3-carboxylic acid (4-(3,4-dimethoxy-phenyl)-4-{1,3-dioxo-4-[4-(1R)-(1-phenyl-ethyl)-piperazin-1-yl]-1,3-dihydro-isoindol-2-yl}-butyl)-amide]: 0.02 µM, 1.3 µM and 0.12 µM.
The matching figures for `CCOCCC(=O)NCCC[C@H](c1ccc(OC)c(OC)c1)N1C(=O)c2cccc(N3CCN([C@H](C)c4ccccc4)CC3)c2C1=O` [Cpd 189, (R)-N-(4-(3,4-dimethoxy-phenyl)-4-{1,3-dioxo-4-[4-(1R)-(1-phenyl-ethyl)-piperazin-1-yl]-1,3-dihydro-isoindol-2-yl}-butyl)-3-ethoxy-propionamide]: 0.0086 µM, 1.1 µM and 0.057 µM.
The matching figures for `COc1ccc([C@@H](CCCNC(=O)c2cn[nH]c2)N2C(=O)c3cccc(N4CCN([C@H](C)c5ccccc5)CC4)c3C2=O)cc1OC` [Cpd 190, (R)-1H-pyrazole-4-carboxylic acid (4-(3,4-dimethoxy-phenyl)-4-{1,3-dioxo-4-[4-(1R)-(1-phenyl-ethyl)-piperazin-1-yl]-1,3-dihydro-isoindol-2-yl}-butyl)-amide]: 0.0061 µM, 0.29 µM and 0.02 µM.
